PubChem BioAssay (NCI)
Several values for one entry are separate records, joined by “and”; a condition that tells them apart may be missing. Equal values may be shown once.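 Five compound concentrations were applied to cells in 96-well plates for 48 hours; endpoints were derived by simple linear interpolation of the resulting dose-response curve. GI50 marks 50% less growth. TGI: concentration producing complete growth inhibition.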

Tests used:
Assay in all cases: growth of human tumour cells (NCI), 48 h
PC-3 prostate = system: PC-3 prostate
ACHN renal = system: ACHN renal
MOLT-4 leukemia = system: MOLT-4 leukemia
SK-MEL-2 melanoma = system: SK-MEL-2 melanoma
HL-60(TB) leukemia = system: HL-60(TB) leukemia
EKVX NSCLC = system: EKVX NSCLC
HCC-2998 colon = system: HCC-2998 colon
DU-145 prostate = system: DU-145 prostate
SNB-75 CNS = system: SNB-75 CNS
A498 renal = system: A498 renal

Compound | GI50 (PC-3 prostate) [µM] | TGI (PC-3 prostate) | TGI (ACHN renal) [µM] | GI50 (MOLT-4 leukemia) [µM] | TGI (MOLT-4 leukemia) [µM] | GI50 (SK-MEL-2 melanoma) [µM] | TGI (SK-MEL-2 melanoma) [µM] | GI50 (HL-60(TB) leukemia) [µM] | GI50 (EKVX NSCLC) [µM] | TGI (EKVX NSCLC) [µM] | GI50 (HCC-2998 colon) [µM] | TGI (HCC-2998 colon) | GI50 (DU-145 prostate) [µM] | TGI (DU-145 prostate) | GI50 (SNB-75 CNS) [µM] | TGI (SNB-75 CNS) [µM] | GI50 (A498 renal) [µM] | TGI (A498 renal) [µM] | GI50 (ACHN renal) [µM] | TGI (HL-60(TB) leukemia) [µM]
O=[N+]([O-])c1cc([N+](=O)[O-])c(Nn2c3ccccc3c3ccccc32)c([N+](=O)[O-])c1 | 0.316 | 7.37 µM and 11.3 µM | 8.49 | 0.11 | > 100 | 0.267 | 0.702 | 0.227 | 0.328 | 7.64 | 0.44 | 12.5 µM and 2.63 µM | 0.442 | 20.1 µM and 18.7 µM | 0.204 | 0.92 | 0.228 | 0.624 | – | –
CCN(Cc1cccc(Cl)c1)c1ccc(CO)c(Cl)c1 | 9.8 | 23.2 µM | 25.1 | 12.1 | 34.7 | 3.86 | 20.8 | 3.93 | 12.4 | 27 | 11.3 | 24.8 µM | 11.6 | 24.8 µM | 12 | 30.2 | 0.029 | 0.166 | 11.9 | 20.9
Cn1c2c(c3ccccc31)CCN1C(=O)CCC21 (stereo unspecified) | – | > 10 µM | > 10 | – | > 10 | – | > 10 | – | – | > 10 | – | > 10 µM | – | > 10 µM | – | > 10 | – | > 10 | – | > 10
CCOc1ccn(-c2ccc(F)cc2)c(=O)c1C(=O)Nc1ccc(Oc2ccnc(N)c2Cl)c(F)c1 | 9.02 | > 100 µM | > 89.1 | 5.78 | 59 | 14 | 35.7 | 15.3 | 31.3 | > 100 | 38.5 | > 100 µM | 21.1 | > 100 µM | 2.39 | 22.5 | 1.6 | 12.2 | 9.22 | 38.6
CCOC(=O)C(C#N)C1=CC(=O)C(=O)c2ccc(O)cc21 (stereo unspecified) | – | > 100 µM | > 100 | – | > 100 | – | > 100 | – | – | > 100 | – | > 100 µM | – | > 100 µM | – | > 100 | – | > 100 | – | > 100
Cc1cc(Nc2cc(N3CCN(C)CC3)nc(/C=C/c3ccccc3)n2)n[nH]1 | 0.794 | > 6.61 µM | 3.92 | 0.186 | > 10 | 0.702 | > 2.39 | 0.32 | 1.21 | > 7.24 | 0.839 | 4.42 µM | 1.04 | > 10 µM | 0.391 | 2.12 | 0.389 | 1.66 | 0.205 | 2.57
CO[C@H]1CC(O[C@@H]2/C(C)=C/C[C@@H]3C[C@@H](C[C@]4(CC[C@H](C)[C@@H](C5CCCCC5)O4)O3)OC(=O)[C@@H]3C=C(C)/C(=N/O)[C@H]4OC/C(=C\C=C\[C@@H]2C)[C@]43O)O[C@@H](C)C1O (stereo partly specified) | 0.704 | 1.84 µM | 2.01 | 1.12 | 2.53 | 1.18 | 2.68 | 1.01 | 0.951 | 2.64 | 0.831 | 1.57 µM | 0.833 | 1.62 µM | 0.867 | 2.57 | 0.802 | 1.95 | 0.994 | 2.27
CN1CCN(Cc2ccc(NC(=O)c3cncc(C#Cc4cnc(N)c5cccnc45)c3)cc2C(F)(F)F)CC1 | 0.665 | > 50 µM | – | 0.214 | > 50 | 0.12 | 0.332 | 0.223 | 1.36 | > 50 | 0.484 | > 50 µM | 0.309 | > 50 µM | 0.469 | > 12 | 0.112 | 0.723 | – | 1.17
CC[C@@H](C)/C=C(C)/C=C/C(=O)c1c(O)c(-c2ccc(O)cc2)cn(O)c1=O | 3.2 | 18.8 µM | 9.55 | 0.31 | 15.7 | 0.329 | 16.8 | 0.27 | 1.6 | 13.1 | 2.31 | 13.1 µM | 0.496 | 13.8 µM | 1.38 | 15.7 | 0.479 | 13.1 | 0.33 | 13.5
C/C=C1/CC(C)C(C)(O)C(=O)OCC2C(O)CN3CCC(OC1=O)C23 (stereo unspecified) | – | > 100 µM | > 100 | – | > 100 | – | > 100 | – | – | > 100 | – | > 100 µM | – | > 100 µM | – | > 100 | – | > 100 | – | > 100
O=C(NCC1CCCO1)c1ccc(NC2=C(Cl)C(=O)N(Cc3ccccc3)C2=O)cc1 (stereo unspecified) | 11.4 | 25 µM | 38.8 | 4.49 | > 100 | 17.5 | 34.7 | 9.25 | 20.4 | 37 | 13.1 | 27.1 µM | 12.3 | 30 µM | 20 | 39.3 | 22.2 | 41.9 | 18.7 | 25
CN1CCN(C(=O)COc2ccc(/C=C3\CC4C5CC=C6CC(Cl)CCC6(C)C5CCC4(C)C3=O)cc2)CC1 (stereo unspecified) | > 100 | > 100 µM | > 100 | – | – | > 100 | > 100 | – | > 100 | > 100 | > 100 | > 100 µM | > 100 | > 100 µM | 19 | 56.7 | > 100 | > 100 | > 100 | –
CCOP(=O)(OCC)C(C(=O)OC)C(=O)C(=O)Nc1cccc(O)c1 (stereo unspecified) | – | > 100 µM | > 100 | – | > 100 | – | > 100 | – | – | > 100 | – | > 100 µM | – | > 100 µM | – | > 100 | – | > 100 | – | –
